Our source for the Ki values is ChEMBL document CHEMBL6109170, “Integrated Advancements in Neuroplasticity, Psychedelic Therapeutics, and AI-Driven Innovations for Precision Medicine” (ACS Med Chem Lett, 2025).

pKi: −log10 of the molar value. Some results are limits rather than exact numbers.

The target in the first assay is 5-hydroxytryptamine receptor 2A (Homo sapiens, UniProt P28223). The experiment in a line: Binding affinity to 5-HT2A receptor (unknown origin) assessed as inhibition constant by radioligand binding assay.
5-hydroxytryptamine receptor 2A, sequence (P28223 whole entry): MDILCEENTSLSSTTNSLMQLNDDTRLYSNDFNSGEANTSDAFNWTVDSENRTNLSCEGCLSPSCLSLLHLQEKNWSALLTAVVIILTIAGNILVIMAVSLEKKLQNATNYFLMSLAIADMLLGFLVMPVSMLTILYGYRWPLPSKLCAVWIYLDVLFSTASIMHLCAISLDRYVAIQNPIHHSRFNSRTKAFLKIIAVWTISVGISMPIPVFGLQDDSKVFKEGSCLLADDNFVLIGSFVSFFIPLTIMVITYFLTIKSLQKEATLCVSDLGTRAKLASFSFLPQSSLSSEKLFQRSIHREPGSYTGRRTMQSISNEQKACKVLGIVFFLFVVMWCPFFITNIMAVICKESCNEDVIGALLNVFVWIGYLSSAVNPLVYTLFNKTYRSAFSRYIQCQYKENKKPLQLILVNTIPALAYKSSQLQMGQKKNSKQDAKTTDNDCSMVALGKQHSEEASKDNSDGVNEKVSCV
Broadly, the pKi is the negative decadic logarithm of the Ki, by convention in mol/L. Take `CC(C)N(CCc1c(Br)[nH]c2ccccc12)C(C)C`: the pKi was below 5.00.

The next assay deals with T1, 5-hydroxytryptamine receptor 1A (Homo sapiens, UniProt P08908).
T1 sequence (P08908 whole entry): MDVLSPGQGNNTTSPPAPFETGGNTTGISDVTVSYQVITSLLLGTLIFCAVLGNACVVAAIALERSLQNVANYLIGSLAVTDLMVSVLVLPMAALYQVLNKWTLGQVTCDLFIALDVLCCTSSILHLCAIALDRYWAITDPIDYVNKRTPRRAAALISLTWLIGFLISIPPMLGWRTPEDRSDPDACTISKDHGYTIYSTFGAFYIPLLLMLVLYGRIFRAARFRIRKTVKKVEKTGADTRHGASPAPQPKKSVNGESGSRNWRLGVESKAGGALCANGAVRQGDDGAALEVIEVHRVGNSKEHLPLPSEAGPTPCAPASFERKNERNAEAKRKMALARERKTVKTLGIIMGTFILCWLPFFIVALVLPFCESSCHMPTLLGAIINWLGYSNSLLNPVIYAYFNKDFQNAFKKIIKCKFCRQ
Kind of assay: Binding affinity to 5HT1A receptor (unknown origin) assessed as inhibition constant by radioligand binding assay.
For the molecule `CC(=O)Oc1cccc2[nH]cc(CCN(C)C)c12`, the pKi is below 5.00.
`CN(C)CCc1c(Cl)[nH]c2ccccc12`: the pKi was below 5.00.
For the molecule `CC(=O)Oc1cccc2[nH]c(Br)c(CCN(C)C)c12`, the pKi is below 5.00.
With `CC(C)N(CCc1c(Br)[nH]c2ccccc12)C(C)C`, the pKi was below 5.00.
As to `CC(=O)Nc1cccc2[nH]cc(CCN(C)C)c12`, the pKi is below 5.00.
